Values joined by “and” are separate entries in the source; they are usually repeats but may differ in a detail not shown here. Equal entries are not always repeated. Square brackets hold non-standard residues; d marks the D form. Peptide text beside a SMILES is read from it.
How the values were obtained:
[1] = system: THP1-Lucia ISG cells infected by HSV-1; assay: Luciferase reporter assay, HSV-1 infection; type: cell-based, human; settings: for luciferase activity, Fig. 5c: XQ2 10 μM
Protocol: THP1-Lucia ISG cells (Invivogen) were seeded into a 96-well plate and incubated with RU.521 (Invivogen) or XQ2 for the indicated time, and then transfected with dsDNA by lipofectamine 2000 (Invitrogen) or infected by HSV-1 with the indicated titer for 24 h. The supernatant was collected and 50 μL QUANTI-Luc Luciferase reagent (Invivogen) was added to 20 μL supernatants per well, and luciferase luminescence was detected by a microplate reader (BioTek Synergy H1) immediately.

hcGAS-FL and Cy3-ISD = molecular target: T1, hcGAS-FL and Cy3-ISD (Homo sapiens, UniProt Q8N884); assay: In vitro phase separation assay (cGAS-DNA condensates); type: biochemical; settings: for Droplets (%), Fig. S6b: hcGAS-FL 100nM, Cy3-ISD 100nM; for Droplets (%), Fig. 4e: hcGAS-FL 500 nM, Cy3-ISD 500 nM; for Droplets (%), Fig. S6d: hcGAS-FL 1 μM, Cy3-ISD 1 μM
T1 construct: The gene encoding full-length human cGAS (hcGAS-FL); 6xHis-SUMO (N, cleaved yes); made in house; host or cells: Escherichia coli BL21 (DE3)
Protocol: Purified hcGAS-FL and Cy3-labeled DNA (Cy3-ISD) with the indicated concentrations were mixed with DMSO (0.1%) or indicated doses of XQ2 in 96-well plates (JingAn Biological) pre-coated with 20 mg/ml BSA (Sigma). Mixtures were incubated in buffer (20 mM Tris-HCl, pH 7.5, 150 mM NaCl and 1 mg/ml BSA) with standing at 37 °C in a total reaction volume of 50 μL. Phase-separated droplets were imaged at the indicated time by using Nikon A1R+ confocal microscope with a 60× oil objective, Nikon A1 camera, and X-Cite 120LED laser. Images were analyzed using FIJI software. The number of droplets was measured as the percentage of the imaging area occupied by Cy3-labeled components, and was plotted using GraphPad Prism 8.

[2] = molecular target: T2, truncated cGAS (hcGAS-ΔN, residues 147–522) (Homo sapiens, UniProt Q8N884); assay: Surface plasmon resonance (SPR); type: binding
T2 construct: N-terminally truncated human cGAS (hcGAS-ΔN, residues 147–522); 6xHis-SUMO (N, cleaved yes); made in house; host or cells: Escherichia coli BL21 (DE3)
Protocol: (§1) All SPR binding studies were performed with a Biacore 8 K instrument (GE Healthcare Life Sciences). hcGAS-FL / hcGAS-ΔN (1 mg mL^−1) was immobilized in a CM5 chip by EDC/NHS method. The tested peptide was diluted with running buffer (20 mM HEPES, pH 7.5, 125 mM KCl,10 mM MgCl2). All the samples contained the same concentration of DMSO (0.5%). The tested peptide was injected at a flow rate of 30 μL min^−1 for 200 s of association, followed by 200 s of disassociation at 25 °C. The final graphs were obtained by subtracting blank sensorgrams. The data were analyzed with Biacore Insight Evaluation software.

[3] = molecular target: T3, full-length human cGAS (hcGAS-FL) (Homo sapiens, UniProt Q8N884); assay: Surface plasmon resonance (SPR); type: binding
T3 construct: The gene encoding full-length human cGAS (hcGAS-FL); 6xHis-SUMO (N, cleaved yes); made in house; host or cells: Escherichia coli BL21 (DE3)
Protocol: as §1

[4] = system: Trex1 knockdown L929 cells; assay: qPCR of Ifnb1 and Cxcl10 mRNA after Trex1 siRNA; type: cell-based, mouse
Protocol: The indicated cells were stimulated with either ISD (Sangon Biotech), HSV-1 (Provided by Dr. Zhengfan Jiang), HSV60mer (Sangon Biotech), SATE-cddA[70], 2’3’-cGAMP (Invivogen, Cat# tlrl-nacga23-1), ADU-S100 (MedChemExpress, Cat# HY-12885A) or Poly(I:C) (Invivogen, Cat# tlrl-pic) after XQ2 or XQ2B treatment. Total RNA was isolated from indicated cells that incubated with the drugs for indicated time or mice tissues by using NucleoZOL reagent (MACHEREY-NAGEL) according to the manufacturer’s instructions. The quantifications of mRNA levels were carried out by real-time PCR using a PerfectStart® Uni RT&qPCR Kit (TransGen Biotech) on the QuantStudio 5 qPCR machine (Applied Biosystems). Samples were carried out in triplicate and the target CT values were normalized to GAPDH CT values. Primers of qPCR used in this study can be found in Supplementary Table S2.
siRNA of TREX1 (siTREX1) was transfected into the indicated cells by Lipofectamine RNAiMAX (Invitrogen) according to the manufacturer’s instructions. Human siTREX1, mouse siTrex1 and negative control siRNAs were purchased from Sangon Biotech. The sequences of siRNAs oligonucleotides can be found in Supplementary Table S2.
Supplementary Fig. 9. XQ2B reduces interferon expression induced by Trex1 deficiency. […]
Trex1 knockdown L929 cells were treated with DMSO or XQ2B (20 μM) for 24 h, and the mRNA levels of Trex1 (c),
Ifnb1 and Cxcl10 (d) mRNA was measured by qPCR. (c) p < 0.0001, (d) p = 0.003 (Ifnb1); p = 0.0003 (Cxcl10). (e, f) […]
Source data are provided as a Source Data file.

T1 sequence (Q8N884 whole entry): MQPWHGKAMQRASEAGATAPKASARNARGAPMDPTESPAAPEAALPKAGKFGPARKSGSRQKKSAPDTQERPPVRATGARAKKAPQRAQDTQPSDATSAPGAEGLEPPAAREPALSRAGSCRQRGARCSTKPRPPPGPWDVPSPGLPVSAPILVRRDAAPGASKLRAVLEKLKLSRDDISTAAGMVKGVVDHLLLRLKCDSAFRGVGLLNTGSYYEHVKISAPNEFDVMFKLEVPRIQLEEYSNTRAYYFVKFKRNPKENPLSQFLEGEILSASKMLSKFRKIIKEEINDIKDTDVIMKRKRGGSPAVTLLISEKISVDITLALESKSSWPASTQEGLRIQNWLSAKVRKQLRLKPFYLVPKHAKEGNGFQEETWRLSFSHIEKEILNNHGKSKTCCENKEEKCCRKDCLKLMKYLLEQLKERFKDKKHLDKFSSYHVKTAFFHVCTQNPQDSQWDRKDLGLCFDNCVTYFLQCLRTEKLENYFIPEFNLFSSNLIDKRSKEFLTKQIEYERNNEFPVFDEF
T3 sequence (Q8N884 whole entry): as above
T2 sequence (Q8N884 147-522, stated change not applied): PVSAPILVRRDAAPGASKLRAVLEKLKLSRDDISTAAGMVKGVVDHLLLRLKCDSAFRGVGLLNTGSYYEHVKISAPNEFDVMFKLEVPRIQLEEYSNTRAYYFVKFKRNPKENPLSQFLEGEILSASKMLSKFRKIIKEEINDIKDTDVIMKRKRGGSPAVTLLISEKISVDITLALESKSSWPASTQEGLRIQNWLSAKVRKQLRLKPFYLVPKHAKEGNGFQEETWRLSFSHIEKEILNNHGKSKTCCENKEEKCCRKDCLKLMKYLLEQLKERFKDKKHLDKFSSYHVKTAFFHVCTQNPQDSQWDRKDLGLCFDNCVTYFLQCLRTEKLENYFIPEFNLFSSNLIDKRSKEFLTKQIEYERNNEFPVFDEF

## CC(C)C[C@@H]1NC(=O)[C@H](CCCNC(=N)N)NC(=O)[C@H](C(C)C)NC(=O)[C@@H]2CCCN2C(=O)[C@@H](Cc2ccccc2)NC(=O)[C@H](CC(C)C)NC(=O)[C@H](CCCNC(=N)N)NC(=O)[C@H](C(C)C)NC(=O)[C@H](C)NC(=O)[C@@H](Cc2ccccc2)NC1=O [XQ2, Cyclo (LfAVRLfPVR)] (cyclo(L[dF]AVRL[dF]PVR))
[1]; 10 μM
  HSV-1-induced luciferase reporter signal: further confirmed in the reporter cell line THP1 Lucia ISG
[1]; Ctl
  luciferase activity, Fig. 5c: 1.148 and 1.262 and 1.5089
[1]; HSV-1 1×10^4 pfu 24 h
  luciferase activity, Fig. 5c: 3.199 and 3.457 and 4.259
[1]; HSV-1 2×10^4 pfu 24 h
  luciferase activity, Fig. 5c: 5.808 and 6.219 and 6.721
[1]; HSV-1 5×10^4 pfu 24 h
  luciferase activity, Fig. 5c: 11.1309 and 12.5837 and 12.8036
hcGAS-FL and Cy3-ISD
  DNA-induced liquid phase condensation of cGAS: efficiently suppressed DNA-induced liquid phase condensation of cGAS in a dose-dependent manner
hcGAS-FL and Cy3-ISD; XQ2 10 μM
  Droplets (%), Fig. S6b: 33.0922% and 37.8074% and 43.9421%
  Droplets (%), Fig. S6d: 79.2214% and 80.5313% and 77.1189%
hcGAS-FL and Cy3-ISD; XQ2 20 μM
  Droplets (%), Fig. S6b: 10.262% and 16.2032% and 13.5624%
  Droplets (%), Fig. 4e: 40.7983% and 55.7848% and 51.751%
  Droplets (%), Fig. S6d: 68.3204% and 65.6495% and 68.2188%
hcGAS-FL and Cy3-ISD; XQ2 40 μM
  Droplets (%), Fig. S6b: 8.642% and 8.102% and 4.321%
  Droplets (%), Fig. 4e: 25.4542% and 20.5523% and 21.4459%
  Droplets (%), Fig. S6d: 48.2853% and 49.5952% and 47.6049%
hcGAS-FL and Cy3-ISD; 30 min 37 °C, XQ2 10 μM
  Droplets (%), Fig. 4e: 73.0692% and 66.6865% and 62.8824%
[2]; XQ2 2.5 μM
  Response (RU), SPR, Fig. S4b: 32.0968 RU
[2]; XQ2 5 μM
  Response (RU), SPR, Fig. S4b: 115.953 RU
[2]; XQ2 10 μM
  Response (RU), SPR, Fig. S4b: 275.186 RU
[2]; hcGAS-ΔN, Fig. S4b
  Kd: 86.5 ± 76.2 µM
[3]; XQ2 2.5 μM
  Response (RU), SPR, Fig. 3a: 57.4165 RU
[3]; XQ2 5 μM
  Response (RU), SPR, Fig. 3a: 140.669 RU
[3]; XQ2 10 μM
  Response (RU), SPR, Fig. 3a: 252.736 RU
[3]; hcGAS-FL, one-to-one binding model, ± 95% CI
  Kd: 35.9 µM and ~35 µM

## CC(C)C[C@@H]1NC(=O)[C@H](CCCNC(=N)N)NC(=O)[C@H](C(C)C)NC(=O)[C@@H]2CCCN2C(=O)[C@@H](Cc2ccccc2)NC(=O)[C@H](CC(C)C)NC(=O)[C@H](CCCNC(=N)N)NC(=O)[C@H]([C@@H](C)O)NC(=O)[C@H](C)NC(=O)[C@@H](Cc2ccccc2)NC1=O [XQ2B] (cyclo([dF]ATRL[dF]PVRL))
[4]; Fig. S9d, Trex1 knockdown (siTrex1 +) L929 cells, XQ2B +, individual replicates, siTrex1 alone 5.56-7.04
  Relative mRNA level Cxcl10: 1.176 and 1.276 and 1.118
[4]; Fig. S9d, Trex1 knockdown (siTrex1 +) L929 cells, XQ2B +, individual replicates, siTrex1 alone 23.9-27.1
  Relative mRNA level Ifnb1: 15.103 and 18.4861 and 15.5105
[4]; L929, 20 μM, 24 h
  expression of Ifnb1, Cxcl10 with Trex1-siRNA: markedly inhibited the expression of these genes in mouse L929 and human THP1 cells with Trex1-siRNA

Source: article PMC10545747, “Development of cyclopeptide inhibitors of cGAS targeting protein-DNA interaction and phase separation” (Nature Communications, 2023)
